Ten molecules from patent US5128338A, “Imidazo [1,2-c] quinazoline compounds” (priority 1990, dated 1992) can be followed below.

SMILES strings stand for the structures. Bounds are passed on as bounds.

Assay [1] concerns the target T1, peripheral receptors for benzodiazepines ([^3 H]-R05-4864) (Rattus norvegicus, UniProt P16257).
T1 construct: on microsomal fractions from rat heart; from tissue; host or cells: rat heart, microsomal fractions
As to the kind of experiment: Displacement of [3H]-R05-4864, rat heart microsomal fractions.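 Further: Read-out is filter-retained bound radioligand, separated from free ligand by vacuum filtration over GF/C and counted by liquid scintillation, with compounds first dissolved in DMSO.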 Type of assay: binding. As to conditions: corrected for DMSO, read-out: K0.5, peripheral receptors, [^3 H]--RO 54864. (In general: In a radioligand displacement assay an active substance lowers the binding of a labelled ligand.)

Assay [2] concerns the target T2, peripheral receptors for benzodiazepines ([^3 H]-PK 11195) (Rattus norvegicus, UniProt P16257).
T2 construct: on microsomal fractions from rat heart; from tissue; host or cells: rat heart, microsomal fractions
Put plainly: Displacement of [3H]-PK 11195, rat heart microsomal fractions.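 Further: radioligand binding with bound label split from free by vacuum filtration, then quantified through liquid scintillation counting.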 As to conditions: corrected for DMSO, read-out: K0.5, peripheral receptors, [^3 H]--PK 11195. The assay is classed as binding.

For a further assay, the system named is porcine coronary. Put plainly: Porcine coronary relaxation (PGF2α-precontracted coronary segments). The arrangement: species or system pig (Yucatan mini pig). As to conditions: for EC20 / EC50: Sus scrofa, porcine coronary segments, 37° C., PGF2α 4.10^-6 M, corrected for DMSO; for EC20: read-out: DE20, effect on coronary tension induced by PGF2α; for EC50: read-out: DE50, effect on coronary tension induced by PGF2α; for level of relaxation obtained as well as the 50% effect value (K0.5) obtained by displacement: overall judgement of relaxation and K0.5. On the procedure:
All the products studied were dissolved in DMSO at a concentration of 10^-2 M, then diluted to the desired concentrations in the experimental media. All of the ED20, ED50 and K0.5 values were corrected for the values obtained with DMSO under the same conditions of dilution.
Coronaries were taken on the heart of pigs (Yucatan mini pig), anesthetized under stresnil and pentobarbital. Proximal segments of the coronary were placed in an organ tank filled with Ringer solution at 37° C. The segments were tightened progressively to a base tension of around 6 g and contracted by the addition of PGF2α at a concentration of 4.10^-6 M. The potential of the products of the present invention to relax the coronary artery were then tested.
All of the compounds were tested for their capacity to relax the porcine coronary precontracted by PGF2α.

For assay [3], the target named is central receptors for benzodiazepines. Put plainly: Displacement of [3H]-RO 151788, rat central nervous system microsomal fractions. Type of assay: binding. As to conditions: corrected for DMSO, read-out: K0.5, central receptors, [^3 H]--RO 151788.

For `CCN(CC)C(=O)Cn1c(=O)n2cc(-c3ccc(Cl)cc3)nc2c2ccccc21` [Example 15, 2-(p-chlorophenyl)-6-N,N-diethylaminocarbonylmethyl-5-oxo-5,6-dihydroimidazo[1,2-c]quinazoline], the IC50 is roughly 100000 nM in assay [1], 1500 nM in assay [2] and greater than 100 µM in assay [3]. Moreover, the EC20 with porcine coronary was determined as 45.4 µM. Moreover, the EC50 with porcine coronary came to 6.12 µM.

Regarding `CCN(CC)C(=O)Cn1c(=O)n2cc(-c3ccsc3)nc2c2ccccc21` [Example 22, 2-(3-thienyl)-6-N,N-diethylaminocarbonylmethyl-5-oxo-5,6-dihydroimidazo[1,2-c]quinazoline], the IC50 was 130 nM in assay [1], 200 nM in assay [2] and greater than 100 µM in assay [3]. Moreover, the EC20 with porcine coronary is 3.51 µM. The EC50 in the assay on porcine coronary was found to be 0.73 µM.

For the molecule `CCOC(=O)Cn1c(=O)n2cc(-c3ccccc3)nc2c2ccccc21` [Example 13, 2-phenyl-6-ethoxycarbonylmethyl-5-oxo-5,6-dihydroimidazo[1,2-c]quinazoline], the IC50 in assay [1] was greater than 100000 nM; in assay [2], 100000 nM; in assay [3], greater than 100 µM. Moreover, in the assay on porcine coronary, the EC20 amounted to 84.2 µM. For the same molecule, in the assay with porcine coronary, the EC50 stood at 7.15 µM.

Regarding `CCN(CC)C(=O)Cn1c(=O)n2cc(-c3ccc(C)cc3)nc2c2ccccc21` [Example 18, 2-(p-methylphenyl)-6-N,N-diethylaminocarbonylmethyl-5-oxo-5,6-dihydroimidazo[1,2-c]quinazoline], the IC50 amounted to 70 nM in assay [1], 210 nM in assay [2] and 100 µM in assay [3]. The EC20 with porcine coronary came to 8.37 µM. In the assay with porcine coronary, the EC50 was 0.94 µM.

Turning to `CCN(CC)C(=O)CCCn1c(=O)n2cc(-c3ccccc3)nc2c2ccccc21` [Example 26, 2-phenyl-6-N,N-diethylaminocarbonylpropyl-5-oxo-5,6-dihydroimidazo[1,2-c]quinazoline], the IC50 was 2300 nM in assay [1], 10000 nM in assay [2] and 100 µM in assay [3]. Further, the EC20 in the assay on porcine coronary was determined as 45.3 µM. For the same molecule, the EC50 in the assay on porcine coronary turned out to be 7.67 µM.

As for `CC(C)CNC(=O)Cn1c(=O)n2cc(-c3ccccc3)nc2c2ccccc21` [Example 24, 2-phenyl-6-N-isobutylaminocarbonylmethyl-5-oxo-5,6-dihydroimidazo[1,2-c]quinazoline], the values for the IC50 in assay [1], in assay [2] and in assay [3] were greater than 100000 nM, greater than 100000 nM and greater than 100 µM, respectively. Also, in the assay on porcine coronary, the EC20 was found to be 24.1 µM. In addition, in the assay on porcine coronary, the EC50 came out at 0.99 µM.

`CCCN(CCC)C(=O)Cn1c(=O)n2c(C)c(-c3cccc(Cl)c3)nc2c2ccccc21` [Example 32, 2-(m-chlorophenyl)-3-methyl-6-N,N-dipropylaminocarbonylmethyl-5-oxo-5,6-dihydroimidazo[1,2-c]quinazoline]: the IC50 was 3.1 nM in assay [1], 2.4 nM in assay [2] and greater than 100 µM in assay [3]. Moreover, the “level of relaxation obtained as well as the 50% effect value (K0.5) obtained by displacement” value in the assay with porcine coronary was “particularly favorable”.

As to `CCOC(=O)CCCn1c(=O)n2cc(-c3ccccc3)nc2c2ccccc21` [Example 27, 2-phenyl-6-ethoxycarbonylpropyl-5-oxo-5,6-dihydroimidazo[1,2-c]quinazoline], the IC50 in assay [1] was 60000 nM; in assay [2] it was greater than 100000 nM; in assay [3] it was 100 µM. Besides, the EC20 in the assay on porcine coronary is greater than 100 µM. In addition, the EC50 in the assay on porcine coronary is greater than 100 µM.

For `CC(C)NC(=O)Cn1c(=O)n2cc(-c3ccccc3)nc2c2ccccc21` [Example 14, 2-phenyl-6-N-isopropylaminocarbonylmethyl-5-oxo-5,6-dihydroimidazo[1,2-c]quinazoline], the results for the IC50 in assay [1], in assay [2] and in assay [3] were greater than 100000 nM, greater than 100000 nM and greater than 100 µM, respectively. In addition, in the assay with porcine coronary, the EC20 amounted to 386 µM. Besides, in the assay with porcine coronary, the EC50 is 13.8 µM.

On to `CCN(CC)C(=O)Cn1c(=O)n2cc(-c3ccc(OC)cc3)nc2c2ccccc21` [Example 17, 2-(p-methoxyphenyl)-6-N,N-diethylaminocarbonylmethyl-5-oxo-5,6-dihydroimidazo[1,2-c]quinazoline], for which the figures for the IC50 in assay [1], in assay [2] and in assay [3] were 120 nM, 140 nM and 100 µM, respectively. Moreover, in the assay with porcine coronary, the EC20 worked out at 2.22 µM. Moreover, in the assay with porcine coronary, the EC50 turned out to be 0.45 µM. Moreover, in the assay on porcine coronary, the “level of relaxation obtained as well as the 50% effect value (K0.5) obtained by displacement” value is “particularly favorable”.
